Measurements taken from ChEMBL document CHEMBL1146944, “Synthesis of Pseudomonas quorum-sensing autoinducer analogs and structural entities required for induction of apoptosis in macrophages” (2006).

These compounds were tested on P388 (assay: Induction of apoptosis in P388D1 cell line).
Type: functional, Mus musculus, DBA/2
Design: concentration or dose not given beside the values

First: O=C(CCCCCC1CC1)CC(=O)N[C@H]1CCOC1=O
Second: O=C(CCCCCCCC1CC1)CC(=O)N[C@H]1CCOC1=O
The Activity of the first is higher: 122.9% for the first, 38.7% for the second.

Compared with CCCCCCCCCCCC(=O)N[C@H]1CCOC1=O, CCCCCCCCCCCC(=O)CC(=O)N[C@H]1CCOC1=O is lower in Activity: 91.1% for the first, 14.8% for the second.

Compared with O=C(CCCCCCCCCO)CC(=O)N[C@H]1CCOC1=O, CCCCCCCCCC(=O)CC(=O)N[C@H]1CCOC1=O is lower in Activity: 109.5% for the first, 31.9% for the second.

Going from CCCCC(=O)N[C@H]1CCOC1=O to CCCC(=O)N[C@H]1CCOC1=O, the Activity falls from 101.8% to 100.4%.

First: CCCCCCCCCC(=O)CC(=O)N[C@@H](C)C(=O)OC
Second: CCCCCCCCCC(=O)CC(=O)N[C@@H]1CCOC1=O
The Activity of the first is higher: 111.2% for the first, 105% for the second.

Going from CCCCCCCCCC(=O)CC(=O)Nc1ccccc1O to CCCCCCCCCC(=O)CC(=O)N[C@H]1CCCC[C@@H]1O, the Activity falls from 109.6% to 96.2%.

Compared with O=C(CCCCCCCCCCCc1ccccc1)CC(=O)N[C@H]1CCOC1=O, O=C(CCCCCCCCCc1ccccc1)CC(=O)N[C@H]1CCOC1=O is higher in Activity: 12.2% for the first, 14.5% for the second.

First: CCCCCCCCC(=O)CCC(=O)N[C@H]1CCOC1=O
Second: CCCCCCCC(=O)CCCC(=O)N[C@H]1CCOC1=O
The Activity of the first is higher: 115.6% for the first, 97.7% for the second.

Compared with O=C(O)CCC(=O)OCCCCCCCCCC(=O)CC(=O)N[C@H]1CCOC1=O, CCCCCCCC(=O)CC(=O)N[C@H]1CCOC1=O is lower in Activity: 114% for the first, 107.7% for the second.

Compared with O=C(CCCCCc1ccccc1)CC(=O)N[C@H]1CCOC1=O, O=C(CCCCCCCc1ccccc1)CC(=O)N[C@H]1CCOC1=O is lower in Activity: 122% for the first, 25.2% for the second.

For CCCCC(=O)CC(=O)N[C@H]1CCOC1=O, the Activity was 111%.
